Laboratory results: patent US20180263985A1, “MODULATORS OF TOLL-LIKE RECEPTORS FOR THE TREATMENT OF HIV” (Gilead Sciences, Inc., priority 2015, published 2018)

Tests used:
Format in all cases: cell-based, human
[1] = test system: Monocytes; test: Immune cell activation in PBMC cultures, flow cytometry: monocytes
Method: (§1) TLR8 is expressed on multiple immune cell subsets. To determine how treatment with a TLR8 modulating compound affects activation of distinct cell populations, PBMCs were purified from HIV-1 infected subjects on cART, as described in Example 121 (anonymized participant IDs 184, 185, 188, 189, 190, and 191). […] After incubation, PBMCs were harvested and stained with antibodies conjugated to specific fluorophores (BD Biosciences) to delineate immune cell subsets: CD4 T cells (CD3+CD4+CD8−), CD8 T cells (CD3+CD8+CD4−), NK cells (CD3−CD56+CD16+), monocytes (CD3−CD14+), B cells (CD3−CD19+), and peripheral dendritic cells (DCs), defined as positive for HLA-DR and negative for a panel of markers: CD3, CD14, CD16, CD19, CD20, CD56 (Lin-1 lineage panel, BD Biosciences).
(§2) Additional markers of activation, maturation, and effector function were included for cell subsets, as follows: CD4 and CD8 T cells (CD25, CD38, CD69, IFN-γ, granzyme B, perforin, TNF-α), NK cells (CD25, CD69, IFN-γ), monocytes (CD11c, CD16, CD80, CD86, CD163, TNF-α), B cells (CD40, CD69, CD80, CD86), and DC (CD11c, CD69, CD80, CD86, CD123, and CD163). Cells were stained for surface markers (CD3, CD4, CD8, CD11c, CD14, CD16, CD25, CD69, CD80, CD86, CD163), washed, treated with fixation and permeabilization buffer (eBioscience), and stained for intracellular markers (IFN-γ, granzyme B, perforin, TNF-α). Cells were evaluated by flow cytometry on a LSR Fortessa (BD Biosciences), and data was analyzed with FlowJo software (TreeStar).
(§3) Data are expressed as geometric mean percentage (%) and as geometric mean fold-activation (Fold) for each marker and for each PBMC subset obtained from 4 or 6 subjects, as indicated. Fold activation is calculated as a ratio of the % positive for each marker for each PBMC subset at the indicated concentration of the compound of Example 15 relative to % positive for DMSO treated samples. Fold activations that are 1.5 are in bold.

[2] = test system: CD4+ T Cells; test: Immune cell activation in PBMC cultures, flow cytometry: CD4+ T cells; settings: 2 days, N = 6
Method: as §1, §2, §3

[3] = test system: HIV-infected CD4 T cells; test: PGT121 antibody-mediated killing of HIV-infected CD4 T cells, monocyte effector model; settings: monocytes from 1 subject pre-treated 1 day with 11 or 33 nM
Text: NK cells and monocytes mediate antibody-dependent cellular cytotoxicity (ADCC) and antibody-dependent cellular phagocytosis (ADCP) respectively. To assess the ability of the compound of Example 15 to enhance ADCC and ADCP, two models were developed using monocytes or PBMCs as effector cells and HIV-infected CD4 T cells as target cells. PBMCs were isolated from 3 healthy subjects' leukaphereses (AlICells, participant IDs A4593, A4596, A4606), as described above. CD4 T cells were isolated from PBMCs using negative selection magnetic beads (EasySep, StemCell Technologies). CD4 T cells were spinfected with HIV-1 isolate 92HT593 (NIH AIDS Reagent Program) and cultured for 5 days at 37° C. For the PBMC model, autologous PBMCs were cultured for 5 days with vehicle control (DMSO) or Example 15 at 100 or 1000 nM. […] Marker staining was measured by flow cytometry using a LSR Fortessa (BD Biosciences) and analyzed with FlowJo software (TreeStar). The percent killing was determined by calculating the reduction of p24+CD4+ T cells mediated by PGT121 antibody relative to a no antibody control.
PBMCs (FIG. 3) or monocytes (FIG. 4) were treated with DMSO or TLR8 agonist for 5 days (FIG. 3) or 1 day (FIG. 4) and then co-cultured for 1 day with autologous HIV-infected CD4 T cells−/+anti-HIV Env antibody PGT121. Reductions in %p24+ CD4+ T cells, relative to no antibody control, were measured by FACS. […]

## CCCC[C@H](CO)Nc1nc(N)nc2cccnc12 [Example 15]
[1]; 10 nM vs DMSO, 2 days, N = 6
  Monocytes CD11c Fold: 0.6 fold
  Monocytes CD69 Fold: 0.3 fold
  Monocytes CD80 Fold: 1.1 fold
[1]; 10 nM, 2 days, N = 6
  Monocytes CD11c %: 0.4%
  Monocytes CD69 %: 0.8%
  Monocytes CD80 %: 33.0%
[1]; 100 nM vs DMSO, 2 days, N = 6
  Monocytes CD11c Fold: 5.2 fold
  Monocytes CD69 Fold: 0.6 fold
  Monocytes CD80 Fold: 1.6 fold
[1]; 100 nM, 2 days, N = 6
  Monocytes CD11c %: 3.6%
  Monocytes CD69 %: 1.8%
[1]; 1000 nM vs DMSO, 2 days, N = 6
  Monocytes CD11c Fold: 1.6 fold
  Monocytes CD69 Fold: 2.0 fold
  Monocytes CD80 Fold: 3.0 fold
[1]; 1000 nM, 2 days, N = 6
  Monocytes CD11c %: 1.2%
  Monocytes CD69 %: 6.2%
[1]; 3000 nM vs DMSO, 2 days, N = 6
  Monocytes CD11c Fold: 2.1 fold
  Monocytes CD69 Fold: 2.6 fold
  Monocytes CD80 Fold: 2.7 fold
[1]; 3000 nM, 2 days, N = 6
  Monocytes CD11c %: 1.5%
  Monocytes CD69 %: 7.9%
[1]; increased expression of CD11c
  Concentration of maximal activation of monocytes: 100 nM
[1]; increased expression of CD69
  Concentration of maximal activation of monocytes: 3000 nM
[1]; increased expression of CD80
  Concentration of maximal activation of monocytes: 1000 nM
[2]; 10 nM vs DMSO
  CD4+ T Cells CD25 Fold: 0.6 fold
  CD4+ T Cells CD69 Fold: 0.7 fold
  CD4+ T Cells Perforin Fold: 1.5 fold
[2]; 10 nM
  CD4+ T Cells CD25 %: 1.5%
  CD4+ T Cells CD69 %: 5.7%
[2]; 100 nM vs DMSO
  CD4+ T Cells CD25 Fold: 1.7 fold
  CD4+ T Cells CD69 Fold: 1.0 fold
  CD4+ T Cells Perforin Fold: 1.3 fold
[2]; 100 nM
  CD4+ T Cells CD25 %: 3.9%
  CD4+ T Cells CD69 %: 7.7%
[2]; 1000 nM vs DMSO
  CD4+ T Cells CD25 Fold: 1.8 fold
  CD4+ T Cells CD69 Fold: 1.5 fold
  CD4+ T Cells Perforin Fold: 1.8 fold
[2]; 1000 nM
  CD4+ T Cells CD25 %: 4.2%
[2]; 3000 nM vs DMSO
  CD4+ T Cells CD25 Fold: 1.3 fold
  CD4+ T Cells CD69 Fold: 1.7 fold
  CD4+ T Cells Perforin Fold: 2.1 fold
[2]; 3000 nM
  CD4+ T Cells CD25 %: 3.0%
  CD4+ T Cells Perforin %: 17.0%
[3]
  PGT121-mediated killing of HIV-infected CD4+ T cells compared to DMSO control: markedly enhanced
